Assay results as given in patent US8758988B2, “Cryopreservation of articular cartilage” (The Governors of the University of Alberta, priority 2009, dated 2014).
Where two headings read alike, the source gives them in different places.

How the values were obtained:
[1] = Arrhenius fit of CPA diffusion coefficients (constants and activation energies); assay type: physicochemical; conditions: for Ea (activation energy) / Dcwo (Arrhenius constant): Table (1), Arrhenius fit of diffusion coefficients; for Dcwo (Arrhenius constant): R = 0.001986 Kcal/(mol. K)
Protocol: Full thickness AC (on 5-10 mm bone base) is harvested from the sample tissue using a hand-held coring device and held at 4° C. in 1× Dulbecco's phosphate-buffered saline (PBS) solution (pH 7.1) (Gibco Invitrogen, Carlsbad, Calif.). Each osteochondral dowel (OCD) is assigned to one of four CPA treatment groups [DMSO, PG, EG, glycerol (all at 6.5M, in 1×PBS)] and one of 11 incubation times (1 second, 1, 2, 5, 10, 15, 30, 60, 120, 180 minutes, 24 hours), as well as one of three temperatures (4, 22, 37° C.). Each combination of treatment, time, and temperature is repeated at least three times.
The tissue sample is isolated by scalpel and the tissue returned to 1×PBS for 5 min, then blotted lightly using Kimwipes® tissue (Kimberly-Clark, Roswell, Ga.) to remove excess fluid from the sample surface, weighed (W1), and immediately immersed in 5 ml of CPA solution for the specified incubation time at the specified temperature. After incubation, the sample is removed from the solution, blotted lightly and weighed for a second time (W2). The sample is then placed into a 35×10 mm cell culture dish (Corning Inc., Corning, N.Y.) containing 4 mL of 1×PBS, fully immersed in the PBS and the dish sealed with Parafilm® (American National Can, Chicago, Ill.) and held for 24 h at 22° C. under dark conditions to allow the CPA within the AC disc to fully equilibrate with the surrounding PBS solution. After 24 h, the CPA/PBS solution is mixed using a pipettor and a 1 mL sample is taken into a 1.5 mL microcentrifuge tube (Thermo Fisher Scientific, Waltham, Mass.). From this sample, 50 μL is placed into a μOSMETTE™ micro-osmometer (Precision Systems, Natick, Mass.) to determine its osmolality (Osm).
The values of the diffusion coefficients for the single CPA diffusion in water were used in the calculations. The values of the diffusion coefficients were calculated before, by fitting Fick's law to the experimental data, as explained in the preceding section of this patent labeled “Permeation Kinetics of CPAs in AC matrix”.
[formula] at x=0, and CCPA=C* at x=THK, where C* is the concentration of the CPA in the external bath at each step of the protocol. The temperature dependence of the diffusion coefficients was calculated by fitting an Arrhenius equation to the values of diffusion coefficients obtained for each CPA at 3 different temperatures as in the preceding section of this patent labeled “Permeation Kinetics of CPAs in AC matrix”. The values of diffusion coefficients were taken from Jomha et al (N M Jomha, G K Law, A Abazari, K Rekieh, J A W Elliott, L E McGann. Permeation of several cryoprotectant agents into porcine articular cartilage. Cryobiology 58(1), 110-114, 2009). For F (formamide), 2 values for diffusion coefficients of formamide in water at 2 different temperatures were extracted from the literature:
Then, these values were fitted to an Arrhenius equation to calculate the constant and activation energy for formamide. As an example, the increase in the minimum DMSO concentration in cartilage, diffusing from a bath of 3 M DMSO solution, at −10° C., was calculated by solving Eqn. (8) as the following:
First, the diffusion coefficient of DMSO in water at −10° C. was calculated from the results of the Arrhenius fit in Table (1). DDMSO(at T=−10° C.=263 K)=298.95×10^−9×exp(−3.9/0.001986/263)=1.71×10^−10 m^2/s

[2] = formamide in water, cited from earlier work

diffusion coefficient of DMSO in water ([1]; at T=−10° C.=263 K, calculated from the Arrhenius fit in Table (1))	Compound	Ea (activation energy) [1] [kcal/mol]	Dcwo (Arrhenius constant) [1]	Diffusion coefficient (m^2/s) ([2]; Temperature 278.2 K)	Diffusion coefficient (m^2/s) ([2]; Temperature 298.15 K)
1.71×10^−10 m^2/s	C[S+](C)[O-] [D (DMSO), dimethyl sulfoxide]	3.9	298.95 ×10^−9 m^2/s	–	–
–	OCCO [E (EG), ethylene glycol]	3.8	183.30 ×10^−9 m^2/s	–	–
–	NC=O [F (Form), formamide]	4.198	1903.510 ×10^−9 m^2/s	0.95 × 10^−9 m^2/s	1.58 × 10^−9 m^2/s
–	OCC(O)CO [G (Gly), glycerol]	5.6	208.03 ×10^−9 m^2/s	–	–
–	CC(O)CO (stereo not shown) [P (PG), propylene glycol]	6.63	16971.0 ×10^−9 m^2/s	–	–
